Experimental data: US20260240832A1, “USE OF NITROXOLINE COMPOUND IN ENHANCING EFFECT OF ANTIBACTERIAL AGENT” (Jiangsu Yahong Meditech Co., Ltd., priority 2022, published 2026)
Read-outs that look alike come from different tables or passages of the source.

What was measured:
[1] = system: carbapenem-resistant Acinetobacter baumannii; experiment: Chessboard microbroth dilution MIC/FIC, compound 2 in combination with polymyxin; assay type: cell-based; conditions: for MIC: Acinetobacter baumannii, read-out: Compound 2 MIC alone; for Compound 2 MIC in combination: with polymyxin; for Polymyxin MIC in combination: with compound 2
From the text: This experiment is designed to determine the minimum inhibitory concentration (MIC) of compound 2 in combination with polymyxin against carbapenem-resistant Acinetobacter baumannii and to calculate the fractional inhibitory concentration (FIC) index.
(§1) Test bacteria: 10 strains of carbapenem-resistant Acinetobacter baumannii are clinically isolated strains, and are provided by Shanghai Junji Medical Laboratory Co., Ltd.
According to the recommendation of the Clinical and Laboratory Standards Institute (CLSI), the microbroth dilution method designed by the chessboard method was used to determine the minimum inhibitory concentration (MIC) of compound 2 in combination with polymyxin against the above strains, and the fractional inhibitory concentration (FIC) index was calculated.
Compound 2 was dissolved in dimethyl sulfoxide to obtain a stock solution I with a concentration of 51200 mg/L. The stock solution I was subjected to 1:1 gradient dilution with dimethyl sulfoxide to obtain a dilution solution with a concentration range of 51200 to 25 mg/L. The corresponding concentrations were added to sterile water for 100-fold dilution to obtain working solution I with a concentration range of 512 to 0.25 mg/L.
Polymyxin was dissolved in sterile water to obtain a stock solution with a concentration of 5120 mg/L. The […] stock solution was subjected to 1:1 gradient dilution with sterile water to obtain a working solution II with a concentration range of 512 to 0.25 mg/L.
(§2) According to the method in Example 1, a drug sensitive plate was prepared with working solution I and working solution II, and the specific process will not be repeated here.
(§3) (2) The culture medium of the bacterial solution: Cation-Adjusted Mueller-Hinton Broth (CAMHB), a product of BBL, USA, batch number 9015952.
(§4) (3) Formulation method of bacterial solution: According to the direct colony suspension method, the test bacteria cultured overnight were prepared into a 0.5 McFarland turbidity tube using physiological saline. Then, the resulting solution was dilute 100 times with the above culture medium. 100 μL of the resulting bacterial solution was mixed well with the solution (100 μL) in each well of the drug sensitivity plate, and the final inoculation amount was 10^5 CFU/mL.
(§5) (4) Culture conditions: Culturing at 35±2° C. for 20 hours in air.
(§6) (1) The experimental results were determined according to the standard of CLSI 2020 M100 30th edition.
(§7) wherein: FIC≤0.5 indicates synergistic effect; 0.5<FIC≤1.0 indicates additive effect; 1<FIC≤2.0 indicates irrelevant effect; and FIC>2 indicates antagonistic effect.

[2] = system: carbapenem-resistant Acinetobacter baumannii; experiment: Chessboard microbroth dilution MIC/FIC, compound 1 in combination with polymyxin; assay type: cell-based; conditions: for Polymyxin MIC in combination: with compound 1
From the text: This experiment is designed to determine the minimum inhibitory concentration (MIC) of compound 1 in combination with polymyxin against carbapenem-resistant Acinetobacter baumannii and to calculate the fractional inhibitory concentration (FIC) index.
as §1
According to the recommendation of the Clinical and Laboratory Standards Institute (CLSI), the microbroth dilution method designed by the chessboard method was used to determine the minimum inhibitory concentration (MIC) of compound 1 in combination with polymyxin against the above strains, and the fractional inhibitory concentration (FIC) index was calculated.
Compound 1 was dissolved in dimethyl sulfoxide to obtain a stock solution I with a concentration of 51200 mg/L. The stock solution I was subjected to 1:1 gradient dilution with dimethyl sulfoxide to obtain a dilution solution with a concentration range of 51200 to 25 mg/L. The corresponding concentrations were added to sterile water for 100-fold dilution to obtain working solution I with a concentration range of 512 to 0.25 mg/L.
Polymyxin was dissolved in sterile water to obtain a stock solution with a concentration of 5120 mg/L. The polymyxin stock solution was subjected to 1:1 gradient dilution with sterile water to obtain a working solution II with a concentration range of 512 to 0.25 mg/L.
as §2, §3, §4, §5, §6, §7

[3] = strain 18-J11-001, compound 2 + polymyxin
[4] = strain 18-J11-002, compound 2 + polymyxin
[5] = strain 18-J11-034, compound 2 + polymyxin
[6] = strain 18-J11-097, compound 2 + polymyxin
[7] = strain 18-J15-030, compound 2 + polymyxin
[8] = strain 18-J21-095, compound 2 + polymyxin
[9] = strain 18-J24-015, compound 2 + polymyxin
[10] = strain 18-J24-033, compound 2 + polymyxin
[11] = strain 18-J40-021, compound 2 + polymyxin
[12] = strain 18-J51-052, compound 2 + polymyxin

Compound `O=[N+]([O-])c1c(Cl)c(F)c2cccnc2c1O` [Compound 2, 5-fluoro-6-chloro-7-nitroquinolin-8-ol] has an MIC ([1]; strain 18-J11-001) of 8 µg/mL, an MIC ([1]; strain 18-J11-002) of 4 µg/mL and an MIC ([1]; strain 18-J11-034) of 4 µg/mL. The MIC ([1]; strain 18-J11-097) was 4 µg/mL, the MIC ([1]; strain 18-J15-030) was 4 µg/mL and the MIC ([1]; strain 18-J21-095) was 4 µg/mL. It also gave an MIC ([1]; strain 18-J24-015) of 4 µg/mL, an MIC ([1]; strain 18-J24-033) of 4 µg/mL and an MIC ([1]; strain 18-J40-021) of 4 µg/mL. The MIC ([1]; strain 18-J51-052) was 4 µg/mL, the “change of the MIC of polymyxin by the combination” value ([1]; compound 2 + polymyxin) was “significantly reduce” and the “effect of the combination (summary of Table 3)” value ([1]; compound 2 + polymyxin) was “synergistic effect or additive effect”. For the same compound, the FIC index [1, 3] was 0.375, the Results [1, 3] was “Synergistic” and the “Compound 2 MIC in combination” value ([1]; strain 18-J11-001) was 1 µg/mL. For the same compound, the FIC index [1, 4] was 0.500, the Results [1, 4] was “Synergistic” and the “Compound 2 MIC in combination” value ([1]; strain 18-J11-002) was 1 µg/mL. For the same compound, the FIC index [1, 5] was 0.750, the Results [1, 5] was “Additive” and the “Compound 2 MIC in combination” value ([1]; strain 18-J11-034) was 1 µg/mL. For the same compound, the FIC index [1, 6] was 0.375, the Results [1, 6] was “Synergistic” and the “Compound 2 MIC in combination” value ([1]; strain 18-J11-097) was 0.5 µg/mL. For the same compound, the FIC index [1, 7] was 0.750, the Results [1, 7] was “Additive” and the “Compound 2 MIC in combination” value ([1]; strain 18-J15-030) was 1 µg/mL. For the same compound, the FIC index [1, 8] was 1.000, the Results [1, 8] was “Additive” and the “Compound 2 MIC in combination” value ([1]; strain 18-J21-095) was 2 µg/mL. The FIC index [1, 9] was 0.500, the Results [1, 9] was “Synergistic” and the “Compound 2 MIC in combination” value ([1]; strain 18-J24-015) was 1 µg/mL. For the same compound, the FIC index [1, 10] was 0.625, the Results [1, 10] was “Additive” and the “Compound 2 MIC in combination” value ([1]; strain 18-J24-033) was 2 µg/mL. The FIC index [1, 11] was 0.500, the Results [1, 11] was “Synergistic” and the “Compound 2 MIC in combination” value ([1]; strain 18-J40-021) was 1 µg/mL. The FIC index [1, 12] was 0.500, the Results [1, 12] was “Synergistic” and the “Compound 2 MIC in combination” value ([1]; strain 18-J51-052) was 1 µg/mL.

With polymyxin E [reference compound] the “Polymyxin MIC alone” value ([1]; strain 18-J11-001) was 0.5 µg/mL, the “Polymyxin MIC in combination” value ([1]; strain 18-J11-001) was 0.125 µg/mL and the “Polymyxin MIC alone” value ([1]; strain 18-J11-002) was 1 µg/mL. For the same compound, the “Polymyxin MIC in combination” value ([1]; strain 18-J11-002) was 0.25 µg/mL, the “Polymyxin MIC alone” value ([1]; strain 18-J11-034) was 0.5 µg/mL and the “Polymyxin MIC in combination” value ([1]; strain 18-J11-034) was 0.25 µg/mL. For the same compound, the “Polymyxin MIC alone” value ([1]; strain 18-J11-097) was 0.5 µg/mL, the “Polymyxin MIC in combination” value ([1]; strain 18-J11-097) was 0.125 µg/mL and the “Polymyxin MIC alone” value ([1]; strain 18-J15-030) was 0.5 µg/mL. For the same compound, the “Polymyxin MIC in combination” value ([1]; strain 18-J15-030) was 0.25 µg/mL, the “Polymyxin MIC alone” value ([1]; strain 18-J21-095) was 0.5 µg/mL and the “Polymyxin MIC in combination” value ([1]; strain 18-J21-095) was 0.25 µg/mL. For the same compound, the “Polymyxin MIC alone” value ([1]; strain 18-J24-015) was 1 µg/mL, the “Polymyxin MIC in combination” value ([1]; strain 18-J24-015) was 0.25 µg/mL and the “Polymyxin MIC alone” value ([1]; strain 18-J24-033) was 1 µg/mL. The “Polymyxin MIC in combination” value ([1]; strain 18-J24-033) was 0.125 µg/mL, the “Polymyxin MIC alone” value ([1]; strain 18-J40-021) was 1 µg/mL and the “Polymyxin MIC in combination” value ([1]; strain 18-J40-021) was 0.25 µg/mL. For the same compound, the “Polymyxin MIC alone” value ([1]; strain 18-J51-052) was 1 µg/mL, the “Polymyxin MIC in combination” value ([1]; strain 18-J51-052) was 0.25 µg/mL and the “Polymyxin MIC alone” value ([2]; strain 18-J11-001) was 0.25 µg/mL. For the same compound, the “Polymyxin MIC in combination” value ([2]; strain 18-J11-001) was 0.06 µg/mL, the “Polymyxin MIC alone” value ([2]; strain 18-J11-002) was 0.25 µg/mL and the “Polymyxin MIC in combination” value ([2]; strain 18-J11-002) was 0.06 µg/mL. The “Polymyxin MIC alone” value ([2]; strain 18-J11-034) was 0.5 µg/mL, the “Polymyxin MIC in combination” value ([2]; strain 18-J11-034) was 0.125 µg/mL and the “Polymyxin MIC alone” value ([2]; strain 18-J11-097) was 0.25 µg/mL. The “Polymyxin MIC in combination” value ([2]; strain 18-J11-097) was 0.06 µg/mL, the “Polymyxin MIC alone” value ([2]; strain 18-J15-030) was 0.5 µg/mL and the “Polymyxin MIC in combination” value ([2]; strain 18-J15-030) was 0.125 µg/mL. The “Polymyxin MIC alone” value ([2]; strain 18-J21-095) was 0.25 µg/mL, the “Polymyxin MIC in combination” value ([2]; strain 18-J21-095) was 0.06 µg/mL and the “Polymyxin MIC alone” value ([2]; strain 18-J24-015) was 0.5 µg/mL. For the same compound, the “Polymyxin MIC in combination” value ([2]; strain 18-J24-015) was 0.125 µg/mL, the “Polymyxin MIC alone” value ([2]; strain 18-J24-033) was 0.5 µg/mL and the “Polymyxin MIC in combination” value ([2]; strain 18-J24-033) was 0.125 µg/mL. The “Polymyxin MIC alone” value ([2]; strain 18-J40-021) was 1 µg/mL, the “Polymyxin MIC in combination” value ([2]; strain 18-J40-021) was 0.125 µg/mL and the “Polymyxin MIC alone” value ([2]; strain 18-J51-052) was 0.5 µg/mL. For the same compound, the “Polymyxin MIC in combination” value ([2]; strain 18-J51-052) was 0.125 µg/mL.
